Experimental data: patent US5175183A, “Lipoxygenase inhibiting compounds” (Abbott Laboratories, priority 1991, dated 1992)

Key:
5-lipoxygenase = biological target: T1, 5-lipoxygenase (Rattus norvegicus, UniProt P12527); experiment: In Vitro 5-lipoxygenase Inhibitory Activity (20,000×g supernatant from homogenized RBL-1 cells); type: biochemical; details: read-out: IC50 (concentration of compound producing 50% enzyme inhibition)
T1 construct: 20,000×g supernatant from homogenized RBL-1 cells; endogenous in cells; host or cells: RBL-1 cells (20,000×g supernatant of homogenate)
T1 sequence (P12527 1-673): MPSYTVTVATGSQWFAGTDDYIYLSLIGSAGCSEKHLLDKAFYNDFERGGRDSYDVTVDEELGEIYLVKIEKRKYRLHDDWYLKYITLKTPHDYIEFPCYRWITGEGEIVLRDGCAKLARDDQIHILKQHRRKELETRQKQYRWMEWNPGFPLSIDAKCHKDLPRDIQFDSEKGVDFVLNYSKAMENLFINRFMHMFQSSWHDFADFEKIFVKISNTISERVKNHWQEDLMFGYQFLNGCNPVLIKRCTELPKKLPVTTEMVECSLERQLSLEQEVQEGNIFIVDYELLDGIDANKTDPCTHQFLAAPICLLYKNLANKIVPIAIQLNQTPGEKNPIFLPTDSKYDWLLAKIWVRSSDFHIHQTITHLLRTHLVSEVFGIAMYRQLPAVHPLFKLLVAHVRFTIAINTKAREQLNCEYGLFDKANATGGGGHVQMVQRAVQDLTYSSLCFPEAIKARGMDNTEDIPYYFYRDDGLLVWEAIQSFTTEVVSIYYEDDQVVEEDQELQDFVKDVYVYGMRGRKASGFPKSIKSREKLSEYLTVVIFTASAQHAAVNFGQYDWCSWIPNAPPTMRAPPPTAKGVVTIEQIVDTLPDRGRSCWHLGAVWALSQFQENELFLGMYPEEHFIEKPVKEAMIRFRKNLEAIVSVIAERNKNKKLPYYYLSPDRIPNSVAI
Protocol: The compounds of this invention are potent inhibitors of 5-lipoxygenase. Their activity was determined using the 20,000×g supernatant from homogenized RBL-1 cells in a similar manner as that described by Dyer and coworkers (Dyer, R. D.; Haviv, F.; Hanel, A. M.; Bornemier, D. A.; Carter, G. W. Fed. Proc., Fed. Am. Soc. Exp. Biol. 1984, 43, 1462A). IC50 values (concentration of compound producing 50% enzyme inhibition) were calculated by linear regression analysius of percentage inhibition versus log inhibitor concentration plots.

Leukotriene Biosynthesis = experiment: In Vivo Inhibition of Leukotriene Biosynthesis (rat peritoneal anaphylaxis model); details: oral gavage 200 μmol/kg one hour prior to antigen challenge, peritoneal fluid leukotrienes 15 minutes after challenge, vs mean of control group
Protocol: Inhibition of the biosynthesis of leukotrienes in vivo after oral administration of compound was determined using a rat peritoneal anaphylaxis model. In this model rats were injected intraperitoneally (ip) with rabbit antibody to bovine serum albumin (BSA) and three hours later injected ip with BSA to induce an antigen-antibody response. Rats were sacrificed 15 minutes after this challenge and the peritoneal fluids were collected and analyzed for leukotriene levels. Test compound was administered by oral gavage one hour prior to the antigen challenge. Percent inhibition values were determined by comparing the treatment group to the mean of the control group.

Row | Compound | IC50 (5-lipoxygenase) [µM] | Percent Inhibition With 200 μmol/kg oral dose (Leukotriene Biosynthesis) [%]
1 | CC(NC(=O)NO)c1ccc(OCc2ccccc2)cc1 (stereo not shown) [Example 1, N'-hydroxy-N-[1-(phenylmethoxyphenyl)ethyl]urea] | 1.2 | 
2 | CC(NC(=O)N(C)O)c1ccc(OCc2ccccc2)cc1 (stereo not shown) [Example 2, N'-hydroxy-N'-methyl-N-[1-(4-phenylmethoxyphenyl)ethyl]urea] | 0.3 | 86
3 | CCCCOc1ccc(C(C)NC(=O)NO)cc1 (stereo not shown) [Example 3, N'-hydroxy-N-[1-(4-butoxyphenyl)ethyl]urea] | 3.8 | 
4 | CC(NC(=O)NO)c1ccc2ccccc2c1 (stereo not shown) [Example 4, N'-hydroxy-N-[(1-naphth-2-yl)ethyl]urea] | 4.6 | 
5 | N'-hydroxy-N'methoxy-N-[(1-naphth-2-yl)ethyl]urea [Example 5] | 27 | 

Now from value to compound, other results behind:

Row | IC50 (5-lipoxygenase) [µM] | Compound | Percent Inhibition With 200 μmol/kg oral dose (Leukotriene Biosynthesis) [%]
6 | 28 | O=C(NO)N[C@@H]1C[C@H]1c1ccccc1 (relative stereo) [Example 11, N'-hydroxy-N-1-(trans-2-phenylcyclopropyl)urea] | 
7 | 3.6 | CN(O)C(=O)NCc1cccs1 [Example 6, N'-hydroxy-N'-methyl-N-[(thien-2-yl)methyl]urea] | 67
8 | 12.7 | CC(NC(=O)NO)c1cc2ccccc2o1 (stereo not shown) [Example 7, N'-hydroxy-N-[(1-benzofuran-2-yl)ethyl]urea] | 
9 | 4 | CN(O)C(=O)NCc1ccsc1 [Example 8, N'-hydroxy-N'-methyl-N-[(thienyl-3-yl)methyl]urea] | 92
10 | 8.4 | Cc1cc(C(C)NC(=O)NO)c(C)s1 (stereo not shown) [Example 9, N'-hydroxy-N-[1-(2,5-dimethylthien-3-yl)ethyl]urea] | 
11 | 0.27 | CC(NC(=O)N(C)O)c1cc2ccccc2o1 (stereo not shown) [Example 10, N'-hydroxy-N'-methyl-N-[(1-benzofur-2-yl)-ethyl]urea] | 50
12 | 13 | O=C(NCc1ccsc1)N(O)CCO [Example 12, N'-hydroxy-N'-(2-hydroxyethyl)-N-[(thien-3-yl)-methyl]urea] | 79
13 | 0.5 | Cc1cc(C(C)NC(=O)N(C)O)c(C)s1 (stereo not shown) [Example 13, N'-hydroxy-N'-methyl-N-[1-(2,5-dimethylthien 3-yl)ethyl]urea] | 49
